{"source": "patent US20140283155A1", "about": "“REPRESSIBLE LETHAL SYSTEM FOR REGULATING INSECT POPULATIONS” (California Institute of Technology, priority 2013, published 2014)", "system": "Drosophila melanogater", "assay": "Evaluation of VanDal system in biological control (in vivo functionality, survival of transgenic lines and progeny)", "conditions": "diet supplemented with a low dose vanillic acid", "from_the_text": "To engineer a dominant vanillic acid-repressible lethal system (VanDal system), a plasmid was constructed, in which the C-terminus of VanR was fused with the Herpes simplex virus transactivation domain VP16, generating a chimeric transcription factor (vanRTF) (as descried in Hagmann et al., 1997). The chimeric transcription factor VanR^TF was driven at high levels, in a ubiquitous pattern, using a baculovirus immediate early (iel) promoter separated by a baculovirus enhancer (hr5) (as described in Bossin et al., 2007). On the same plasmid, but facing in the opposite direction, VanO operator sequences were placed upstream of the P_hsp70^min promoter (as described in Amin et al., 1987), and the P_hsp70^min promoter drove the expression of toxin VP16. The vanillic acid-repressible lethal system resides in a single piggyback transposable element that also includes a positive selection marker gene, (Opie2-dsRed), to facilitate the identification of transgenic insects.\nIn this example, in vivo functionality of the VanDal system prepared according to the general procedure of Example 1 was evaluated in Drosophila melanogater, an insect model organism. […] To simulate a release into the wild, two crosses in the absence of vanillic acid were set up: 1) homozygous VanDal males mated separately to wildtype virgin females and 2) homozygous Vandal females mated separately to wildype males.", "data": [{"smiles": "COc1cc(C(=O)O)ccc1O", "note": "[vanillic acid, 4-hydroxy-3-methoxybenzoic acid]", "values": [{"measurement": "survival of transgenic VanDal lines", "result": "only survive when fed a diet supplemented with a low dose vanillic acid"}]}]}
